Data on two compounds can be found in patent US20260207504A1, “STABILIZATION OF LIPID NANOPARTICLE FORMULATIONS” (Eli Lilly and Company, priority 2022, published 2026).

A short description of this series: Lipid chemical stability in PBS or histidine buffer solution (LC-MS). It counts as physicochemical. The settings on record: for primary degradation pathway: LC-MS; for stability in BT5933 glass vials relative to COP vials: diluted with PBS buffer. The procedure: Stock MC3 lipidic solutions were prepared by dissolving MC3 in an ethanolic solution to a final concentration of 4 mg/mL (e.g., 6 mM). Similarly, stock lipidic DOTAP solutions were prepared by dissolving DOTAP in an ethanolic solution to a final concentration of 4 mg/mL. Stock solutions of phosphate buffered saline (1×, pH 7.4) were used. Final lipidic solutions were prepared by mixing PBS stock to the lipidic stock in a ratio of 3:1 (e.g., PBS stock:DOTAP stock in ethanol=3:1; PBS stock:MC3 stock in ethanol=3:1). Solutions were stored in either glass (BT5933) or polymer (COP) vials.
Dilute lipidic solutions were frozen at −70° C. before being thawed and stored at either 5° C., 25° C., or 40° C. for either 1 week, 2 weeks, or 4 weeks. At each timepoint, (e.g., after 1 week, 2 weeks, or 4 weeks) the lipid solution was analyzed via LC-MS to determine the extent of hydrolysis and/or oxidation present.
MC3 and DOTAP lipids were prepared using either PBS or Histidine buffers. Ethanolic stock solutions of MC3 and DOTAP were prepared as described in Example 1. PBS-based solutions were prepared by diluting the stock lipid solutions, respectively, by 3:1 (PBS:lipid in ethanol (vol/vol)) using 1× PBS, pH 7.4. Histidine-based solutions were also prepared by diluting the stock lipidic solution by 3:1 (histidine:lipid in ethanol vol/vol) using a histidine buffer (10 mM, pH 6.0). Solutions were filled into BT5933, COP, or Valor glass vials at 1 mL aliquots and put on stability. Initial control samples were immediately frozen at −70° C.
Filled vials were stored at either 5° C., 25° C., or 40° C. for either 1 week, 2 weeks, or 4 weeks. At each timepoint, (e.g., after 1 week, 2 weeks, or 4 weeks) the lipid solution was analyzed via LC-MS to determine the extent of hydrolysis and/or oxidation present.

Where [1] appears, read: diluted in 1X PBS pH 7.4, 5, 25, 40° C., 1, 2, 4 weeks.
Where [2] appears, read: histidine buffer (10 mM, pH 6.0) vs PBS, 5, 25, 40° C., 1-4 weeks.

Regarding `CCCCCCCC/C=C\CCCCCCCC(=O)OCC(C[N+](C)(C)C)OC(=O)CCCCCCC/C=C\CCCCCCCC` (stereo not drawn) [DOTAP, 1,2-dioleoyl-3-trimethylammonium-propane], the “stability in BT5933 glass vials relative to COP vials” value is “better stability”. In addition, under setting [1], the “% lipid intact” value was “decreased with increasing storage time”. Besides, under “diluted in 1X PBS pH 7.4”, the primary degradation pathway result is “hydrolysis”. Under setting [2], the “% hydrolysis” value is reported as “decreased the % hydrolysis of DOTAP relative to storage in PBS” and the “% lipid intact” value is reported as “stabilized the % DOTAP intact at all storage conditions tested”.
As for `CCCCC/C=C\C/C=C\CCCCCCCCC(CCCCCCCC/C=C\C/C=C\CCCCC)OC(=O)CCCN(C)C` [MC3, 4-(dimethylamino)-butanoic acid, (10Z,13Z)-1-(9Z,12Z)-9,12-octadecadien-1-yl-10,13-nonadecadien-1-yl ester], the “stability in BT5933 glass vials relative to COP vials” value is “improved stability relative to COP vials”. Also, the “% lipid intact” value under setting [1] is listed as “lower than the % DOTAP for the same time points”. In addition, the primary degradation pathway result (diluted in 1X PBS pH 7.4) is reported as “oxidation”. Under setting [2], the “% hydrolysis” value was “significantly reduced lipid hydrolysis of MC3”, the “% lipid intact” value is “increasing the % MC3 intact at all storage conditions tested” and the degree of oxidation entry is “reduced the degree of oxidation”. Also, under “storage in Valor glass vials vs other vials”, the oxidation rate entry is “lower oxidation rate”.
